In test [1] the test system is A549. The test is described as follows: Antiproliferative activity against human A549 cells measured after 24 hrs by MTT assay. The test is classed as functional, cell-based. A general note: Tetrazolium dyes change colour on reduction, which living cells bring about.
For test [2], the system named is A549. The test is described as follows: Antiproliferative activity against human A549 cells measured after 48 hrs by MTT assay. The test is classed as functional, cell-based. The following applies: for IC50: A549, 48 h.
In test [3] the test system is A549. The test is described as follows: Antiproliferative activity against human A549 cells measured after 72 hrs by MTT assay. It counts as functional, cell-based.
The subject of test [4] is NCI-H1299. The test is described as follows: Antiproliferative activity against human NCI-H1299 cells measured after 24 hrs by MTT assay. It counts as functional, cell-based.
In test [5] the test system is NCI-H1299. The test is described as follows: Antiproliferative activity against human NCI-H1299 cells measured after 48 hrs by MTT assay. It counts as functional, cell-based. The conditions noted are these: for IC50: NCI-H1299, 48 h.
Test [6] relates to NCI-H1299. The test is described as follows: Antiproliferative activity against human NCI-H1299 cells measured after 72 hrs by MTT assay. It counts as functional, cell-based.
The subject of test [7] is NCI-H661. The test is described as follows: Antiproliferative activity against human NCI-H661 cells measured after 24 hrs by MTT assay. The test is classed as functional, cell-based.
For test [8], the system named is NCI-H661. The test is described as follows: Antiproliferative activity against human NCI-H661 cells measured after 48 hrs by MTT assay. The test is classed as functional, cell-based. The conditions noted are these: for IC50: NCI-H661, 48 h.
The subject of test [9] is NCI-H661. The test is described as follows: Antiproliferative activity against human NCI-H661 cells measured after 72 hrs by MTT assay. The test is classed as functional, cell-based.
Test [10] concerns A549. The test is described as follows: Antiproliferative activity against human A549 cells by MTT assay. The test is classed as functional, cell-based. The conditions noted are these: time 24-72 hrs, TDE = time-dependent effect.
The test system of test [11] is NCI-H1299. The test is described as follows: Antiproliferative activity against human NCI-H1299 cells by MTT assay. The test is classed as functional, cell-based. The conditions noted are these: time 24-72 hrs, TDE = time-dependent effect.
In test [12] the test system is NCI-H661. The test is described as follows: Antiproliferative activity against human NCI-H661 cells by MTT assay. It counts as functional, cell-based. The following applies: time 24-72 hrs, TDE = time-dependent effect.
In test [13] the test system is A549. The test is described as follows: Potentiation of cisplatin-induced cytotoxicity against human A549 cells assessed as combination index at 1:7 ratio of cisplatin to compound measured after 48 hrs by MTT assay. It counts as functional.
In test [14] the test system is NCI-H1299. The test is described as follows: Potentiation of cisplatin-induced cytotoxicity against human NCI-H1299 cells assessed as combination index at 1:9 ratio of cisplatin to compound measured after 48 hrs by MTT assay. It counts as functional.
Test [15] has as its system NCI-H661. The test is described as follows: Potentiation of cisplatin-induced cytotoxicity against human NCI-H661 cells assessed as combination index at 1:9 ratio of cisplatin to compound measured after 48 hrs by MTT assay. It counts as functional.
The subject of test [16] is A549. The test is described as follows: Potentiation of cisplatin-induced cytotoxicity against human A549 cells assessed as fold reduction in cisplatin IC50 at 1:7 ratio of cisplatin to compound measured after 48 hrs by MTT assay relative to cisplatin alone. It counts as functional.
The test system of test [17] is NCI-H1299. The test is described as follows: Potentiation of cisplatin-induced cytotoxicity against human NCI-H1299 cells assessed as fold reduction in cisplatin IC50 at 1:9 ratio of cisplatin to compound measured after 48 hrs by MTT assay relative to cisplatin alone. The test is classed as functional.
Test [18] has as its system NCI-H661. The test is described as follows: Potentiation of cisplatin-induced cytotoxicity against human NCI-H661 cells assessed as fold reduction in cisplatin IC50 at 1:9 ratio of cisplatin to compound measured after 48 hrs by MTT assay relative to cisplatin alone. The test is classed as functional.
Test [19] concerns A549. The test is described as follows: Potentiation of raloxifene-induced cytotoxicity against human A549 cells assessed as combination index at 1:4 ratio of raloxifene to compound measured after 48 hrs by MTT assay. The test is classed as functional.
Test [20] has as its system NCI-H1299. The test is described as follows: Potentiation of raloxifene-induced cytotoxicity against human NCI-H1299 cells assessed as combination index at 1:5 ratio of raloxifene to compound measured after 48 hrs by MTT assay. It counts as functional.
The subject of test [21] is NCI-H661. The test is described as follows: Potentiation of raloxifene-induced cytotoxicity against human NCI-H661 cells assessed as combination index at 1:5 ratio of raloxifene to compound measured after 48 hrs by MTT assay. The test is classed as functional.
The subject of test [22] is A549. The test is described as follows: Potentiation of raloxifene-induced cytotoxicity against human A549 cells assessed as fold reduction in raloxifene IC50 at 1:4 ratio of raloxifene to compound measured after 48 hrs by MTT assay relative to raloxifene alone. The test is classed as functional.
In test [23] the test system is NCI-H1299. The test is described as follows: Potentiation of raloxifene-induced cytotoxicity against human NCI-H1299 cells assessed as fold reduction in raloxifene IC50 at 1:5 ratio of raloxifene to compound measured after 48 hrs by MTT assay relative to raloxifene alone. It counts as functional.
Test [24] concerns NCI-H661. The test is described as follows: Potentiation of raloxifene-induced cytotoxicity against human NCI-H661 cells assessed as fold reduction in raloxifene IC50 at 1:5 ratio of raloxifene to compound measured after 48 hrs by MTT assay relative to raloxifene alone. The test is classed as functional.
The subject of test [25] is NCI-H1299. The test is described as follows: Antimigratory activity against human NCI-H1299 cells assessed as reduction in wound closure measured after 24 hrs by wound healing assay. It counts as functional, cell-based.
For test [26], the system named is A549. The test is described as follows: Inhibition of colony formation in human A549 cells assessed as reduction in number of colonies at 85 to 170 uM measured after 48 hrs by colony formation assay. It counts as functional, cell-based. The conditions noted are these: dose 85-170 µM.
Test [27] deals with A549. The test is described as follows: Inhibition of colony formation in human A549 cells assessed as reduction in size of colonies at 85 to 170 uM measured after 48 hrs by colony formation assay. The test is classed as functional, cell-based. The following applies: dose 85-170 µM.
Test [28] relates to A549. The test is described as follows: Induction of apoptosis in human A549 cells assessed as increase in apoptotic cells at 340 uM measured after 48 hrs by Annexin V-FITC/PI staining based flow cytometry relative to control. It counts as functional. (In general: A flow cytometer gives signals particle by particle.)
Test [29] deals with A549. The test is described as follows: Cell cycle arrest in human A549 cells assessed as increase in cell population at G0/G1 phase at 85 uM measured after 48 hrs by propidium iodide staining based flow cytometry. The test is classed as functional.
Test [30] concerns A549. The test is described as follows: Reduction in PDE5 gene expression in human A549 cells at 0.1 IC50 measured after 48 hrs by qRT-PCR analysis. It counts as functional, cell-based.
Test [31] relates to A549. The test is described as follows: Reduction in Bcl-2 gene expression in human A549 cells at 0.1 IC50 measured after 48 hrs by qRT-PCR analysis. The test is classed as functional, cell-based.
The subject of test [32] is A549. The test is described as follows: Reduction in PDE5 protein expression in human A549 cells at 0.25 to 0.5 IC50 measured after 48 hrs by Western blot analysis. The test is classed as functional, cell-based. (In western blotting, separated proteins are transferred to a membrane and probed.)

Molecules are shown by their SMILES. Calls of active or inactive are those of the source. The calls are words filed in the database; no cut-off is given here.

As a reminder, the IC50 is the point on the concentration scale where inhibition reaches its midpoint. A low value points to inhibition by little substance.

Take `COc1ccc(CNc2nc(N3CCC[C@H]3CO)ncc2C(=O)NCc2ncccn2)cc1Cl` [AVANAFIL]: the Activity result with A549 [1], in the test on A549 [2], in the test with A549 [3], in the test with NCI-H1299 [4], with NCI-H1299 [5] and in the test on NCI-H1299 [6] was “Dose-Dependent Effect” each time. Further, the Activity result was “Dose-Dependent Effect” in the test with NCI-H661 [7]; “Dose-Dependent Effect” with NCI-H661 [8]; “Dose-Dependent Effect” in the test with NCI-H661 [9]; “Tde” in the test with A549 [10]; “Tde” with NCI-H1299 [11]; “Tde” in the test with NCI-H661 [12]. Further, the Activity entry in the test with NCI-H1299 [25] was “Dose-Dependent Effect”; in the test with A549 [28], 44%; with A549 [32], “Dose-Dependent Effect”. For the same compound, the IC50 in the test on A549 [1] (A549, 24 h) was determined as 127 µM; in the test on A549 [2], 170 µM; with A549 [3] (A549, 72 h), 131 µM; in the test on NCI-H1299 [4] (NCI-H1299, 24 h) it was 162 µM; in the test on NCI-H1299 [5] it was 184 µM; in the test on NCI-H1299 [6] (NCI-H1299, 72 h) it was 169 µM. The half-inhibitory concentration (IC50) in the test on NCI-H661 [7] (NCI-H661, 24 h) came to 264 µM; in the test with NCI-H661 [8] it was 186 µM; in the test on NCI-H661 [9] (NCI-H661, 72 h), 78.5 µM. In addition, the CI amounted to 0.95 in the test on A549 [13]; 0.69 in the test with NCI-H1299 [14]; 0.89 with NCI-H661 [15]; 0.99 with A549 [19]; 0.73 in the test on NCI-H1299 [20]; 0.9 in the test with NCI-H661 [21]. In addition, the “fold change (FC)” value with A549 [16] was 2.1; in the test on NCI-H1299 [17] it was 2.8; with NCI-H661 [18], 2.4; in the test on A549 [22], 1.9; with NCI-H1299 [23] it was 3; in the test on NCI-H661 [24], 2.7. Further, the inhibition result with A549 [26] and in the test with A549 [27] was “Active” throughout. Further, the outcome with A549 [29], in the test with A549 [30] and with A549 [31] was Active.
As for `O=C(c1ccc(OCCN2CCCCC2)cc1)c1c(-c2ccc(O)cc2)sc2cc(O)ccc12` [RALOXIFENE], the IC50 was 45.6 µM in the test on A549 [2], 45 µM with NCI-H1299 [5] and 44.5 µM in the test with NCI-H661 [8].
